Measurements from US20040101828A1, “Method for analysis of the phenoptypic characteristics of the human immunodeficiency virus (HIV)” (priority 2000, published 2004).

Experiments:
[1] = tested on: HIV virus (recombinant virus carrying reverse transcriptase from patient plasma); assay: Recombinant virus assay (RVA): susceptibility to reverse transcriptase inhibitors, recombinant viruses from patient samples; assay type: cell-based, HIV-1; conditions: for median Resistance Index (RI) relative to NL43: 22 tested viruses from patients with ordinary treatment, 3 RVA replicates; for resistance levels (in words): sample R5
Description: (§1) The determination of the susceptibility of an HIV virus to a reverse transcriptase inhibitor is carried out in the following manner: 293 T cells are transfected with 7.5 μg of pSRT plasmid that is linearized by NruI, 0.1 μg of pVSV-G plasmid and 0.5 and 1 μg of the product that is obtained from the PCR reaction of the reverse transcription of HIV. The transfection precipitate is withdrawn from cells after 18 hours of incubation, and fresh growth medium is added. After 24 hours of cultivation, the supernatant is clarified by centrifuging (500 g, 15 minutes) and transferred to P4 indicating cells that were pre-incubated with serial dilutions of a reverse transcriptase inhibitor, in triplicate wells, for four hours. The range of inhibitor concentrations used varies according to the compounds. The signal that is produced by the activation of the marker gene was developed with CPRG for 48 hours as for the analysis of the susceptibility to a reverse transcriptase inhibitor, and index IC50 was calculated by using the median effect equation.
To determine if NL43 is a reference virus that is suitable for comparison with clinical isolates, a group of samples taken from patients with ordinary treatment was tested on 3 RVA replicates for their susceptibility to reverse transcriptase inhibitors.
The reproducibility of the method for determining the susceptibility of the recombinant virus (RVA) to reverse transcriptase inhibitors (RTI) was evaluated by a series of test on 5 samples, selected so as to represent a wide range of susceptibility profiles, between 4 and 8 tests per sample, by using RNA preparations and separate PCR reactions.

P4 cells = assay type: cell-based
Source text: The inhibitor concentration ranges that are used are selected based on the cellular toxicity of each compound and the IC50/IC90, ratio for the susceptibility of the resistant isolates (Table 1). […] A range of four serial dilutions, beginning at […], was used for the abacavir, making it possible to detect up to 60× more resistance.

Reference Virus NL4-3 = assay: Recombinant virus assay (RVA): susceptibility to reverse transcriptase inhibitors, reference virus; assay type: cell-based, HIV-1
Description: as §1
The pSRT plasmid that brings a deletion in the region that codes for pol extending from codon 24 of reverse transcriptase (base 2618) to codon 432 of reverse transcriptase (base 3872) includes all of the mutations combined with a resistance phenomenon that are known to date. […]

[2] = tested on: HIV viruses (NL-DIM, NL4.3, LAI-L91H); assay: Validation of fusion inhibitor susceptibility method: resistant recombinant viruses versus reference viruses T5A1 and LAI; assay type: cell-based, HIV-1
Description: The recombinations that are obtained by using for the amplification of stage (b) the pair of primers FuA: 5′ […]3′ (SEQ ID No: 23) and FuB: 5′ […]3′ (SEQ ID No: 24) followed by a second amplification, carried out with the primer: FuC: 5′ […]3′ (SEQ ID No: 25) and a mixture of the following primers: FuD1: 5′ […]3′ (SEQ ID No: 26) and FuD2: 5′ […]3′ (SEQ ID No: 27) are very effective.
Actually, to obtain a satisfactory viral production, 10-50 ng of PCR product, used in the recombination stage, is generally adequate. In this method that is intended to analyze the phenotypic fusion characteristic, a viral production corresponding to 50-400 ng/ml of p24 is obtained after transfection. For the infection of target cells, between 0.5 and 5 ng of p24/well (96-well plates) is used. The increase of the optical density that is obtained after infection of target cells is linear if the infection is conducted under these conditions.
To validate the analytical method that relates to the susceptibility of HIV viruses to fusion inhibitors, two fusion inhibitors have been used: a peptide derived from the distal helix sequence in the gp41 of HIV (called DP178 or T20) and a derivative of betulinic acid (RPR103611). For each inhibitor, the reduction of sensitivity of one or more resistant viruses (previously identified by other authors) relative to two reference viruses: a primary plasmatic virus T5A1 and a virus adapted to in-vitro cultivation (LAI) was carried out. All the viruses were produced by recombination.
The increases of IC50 for a strongly resistant NL-DIM virus (described by Rimsky, L. T. et al. J. Virol. 1998, Vol. 72, pages 896-993) and for the NL4.3 virus (which is partially resistant) were measured regarding this inhibitor.
The increase of IC50 of the LA1-L91H resistant virus (Labrosse, B. et al. J. Virol. 2000 Vol 74, pages 2142-2150) regarding this inhibitor has been measured.

[3] = biological target: Envelope protein (gp41) of the NL4.3 reference virus (HIV-1); assay: cell-based or functional assay
[4] = biological target: Envelope protein (gp41) of the strongly resistant NL-DIM virus (HIV-1); assay: cell-based or functional assay
[5] = sample R1 (69N/T, 70R), 6 tests
[6] = sample R2 (41L, 62V, 67N, 69N, 75I, 77L, 115F, 116Y, 151M, 181C, 184V, 190A, 208Y, 215F, 219Q), 6 tests
[7] = sample R3 (184V, 215F), 6 tests
[8] = sample R4 (41L, 67N, 69D, 184V, 190A, H208Y, 210W, 215Y), 5 tests
[9] = sample R5 (215Y, 41L, 74V, 100I, 103N), 5 tests

Compound | Resistance Index, geometric mean (IC50 in the sample relative to NL43) [1, 5] | Resistance Index, geometric mean (IC50 in the sample relative to NL43) [1, 6] | Resistance Index, geometric mean (IC50 in the sample relative to NL43) [1, 7] | Resistance Index, geometric mean (IC50 in the sample relative to NL43) [1, 8] | Resistance Index, geometric mean (IC50 in the sample relative to NL43) [1, 9] | further results
Nc1ccn([C@@H]2CS[C@H](CO)O2)c(=O)n1 [3TC, lamivudine] | 1.3 | >f | > | > | 1.8 | median Resistance Index (RI) relative to NL43 [1]: ~1.22; resistance level (in words) ([1]; sample R3): high resistance level
Cc1cn([C@H]2C[C@H](N=[N+]=[N-])[C@@H](CO)O2)c(=O)[nH]c1=O [AZT, ziodvudine] |  |  |  |  |  | toxicity for the P4 cells (P4 cells): > 300 μm
Nc1nc(NC2CC2)c2ncn([C@H]3C=C[C@@H](CO)C3)c2n1 [Abacavir] | 1.1 | > | 4.3 | 6.1 | 1.7 | IC50 index for the native stock of the virus (Reference Virus NL4-3): about 3 μM; index IC50 for the P4 cells (cellular toxicity) (P4 cells): about 250 μM
Cc1cn([C@H]2C=C[C@@H](CO)O2)c(=O)[nH]c1=O [D4T, stavudine] |  |  |  |  |  | median Resistance Index (RI) relative to NL43 [1]: around 0.92
O=c1[nH]cnc2c1ncn2[C@H]1CC[C@@H](CO)O1 [DDI] | 1.4 | 26.9 | 3.1 | 3.0 | 2.6 | 
O=C1Nc2ccc(Cl)cc2[C@@](C#CC2CC2)(C(F)(F)F)O1 [Efavirenz] | 1.0 | 74.9 | 1.0 | 149.8 | > | resistance levels (in words) [1]: high resistance levels
Cc1ccnc2c1NC(=O)c1cccnc1N2C1CC1 [Nevirapine] |  |  |  |  |  | resistance index ([1]; one virus carrying a mutation on codon 98 (A for S) of reverse transcriptase): 11.0; resistance levels (in words) [1]: high resistance levels
C=C(C)[C@@H]1CC[C@]2(C(=O)NCCCCCCCC(=O)N[C@@H](CC(C)C)[C@@H](O)CC(=O)O)CC[C@]3(C)[C@H](CC[C@@H]4[C@@]5(C)CC[C@H](O)C(C)(C)[C@@H]5CC[C@]43C)[C@@H]12 [RPR103611] |  |  |  |  |  | increase of IC50 ([2]; LAT-L91H resistant virus relative to LAI and to T5A1): greater than 100 ×
T20 fusion inhibitor, a peptide derived from the distal helix sequence in the gp41 of HIV (from UniProt P03377 643-678) |  |  |  |  |  | increase of IC50 relative to LAI [3]: 12.5 fold; increase of IC50 relative to T5A1 (printed 15A1) [3]: 10 fold; increase of the value of IC50 relative to LAI [4]: > 100 fold; increase of the value of IC50 relative to T5A1 [4]: 80 fold
enfuvirtide |  |  |  |  |  | increase of IC50 ([2]; partially resistant NL4.3 virus relative to 15A1): 10 ×; increase of IC50 ([2]; partially resistant NL4.3 virus relative to LAI): 12.5 ×; increase of the value of IC50 ([2]; strongly resistant DIM virus relative to LAI): more than 100 ×; increase of the value of IC50 ([2]; strongly resistant DIM virus relative to T5A1): 80 ×
